From PMC10748408 (Frontiers in Oncology, 2023)

Tested on: TLR4
Assay: TLR4 silencing by vivo-morpholino, western blot of tumors
Type: in vivo, BALB/c mice
Details: tumor-bearing mice, with 25 mg/kg ART, vs SC-MO, p<0.001
Experimental: Normal and tumor tissues were homogenized in ice-cold radioimmunoprecipitation assay (RIPA) buffer containing a protease inhibitor cocktail. Proteins were resolved by 10% sodium dodecyl sulphate-polyacrylamide gel electrophoresis (SDS-PAGE), transferred onto polyvinylidene difluoride (PVDF) membranes, blocked with 5% fat-free milk and incubated with primary antibodies (1:1000 dilution) overnight at 4°C. Blots were subsequently washed and incubated with respective secondary antibodies, tagged with horseradish peroxidase. Protein expression was detected using enhanced chemiluminescence (ECL) kit ([37]). Blots were analyzed using the Gel Doc XR and band intensity quantified using ImageJ software (NIH, USA).
Murine mammary tumors were allowed to develop in BALB/c mice injected with 10^7 4T1 cells. […] Control groups were set up, where normal mice and mice-bearing tumors received PBS for 7 days. At the end of the experiment, tissues were harvested and processed for subsequent experiments.

Question: With “TLR4-VMO: vivo morpholino oligomers against TLR4 mRNA; 5' CAGGGAGGCATCATCCTGGCATTTT 3' (all phosphorodiamidate morpholino (PMO); vivo-morpholino from GeneTools, further chemistry not fully specified)” as the substance, how does the TLR4 expression read?
Answer: The TLR4 expression was “significantly diminished”.
